Values of other authors in US11053249B2, “Proteasome inhibiting β-lactam prodrugs useful for the treatment of cancer and neurodegenerative disorders” (Vita Api, priority 2016, dated 2021).

Conditions: Hogan & Corey, 2005, 2007

- experimental infrared C═O stretching frequency: 1756 cm⁻¹
Structure (SMILES): CC(C)C(O)[C@@]12NC(=O)[C@H](CCCl)[C@@H]1NC2=O (stereo partly drawn) [initial β-lactam]
